Test results as given in ChEMBL document CHEMBL6109094, “Anti-inflammatory agents design via the fragment hybrid strategy in the discovery of compound c1 for treating ALI and UC” (Eur J Med Chem, 2025).
pIC50: −log10 of the molar value. The source made the active and inactive calls. No cut-off for these calls is given here.

Legend:
Mus musculus [1] = assay: Anti-inflammatory activity in C57BL/6 mouse model of LPS-induced ALI assessed as inhibition of IL-6 level in BALF at 20 mg/kg, po measured after 6 hrs with administered on every 12 hrs followed by LPS treatment after 30 mins post-compound treatment by ELISA; assay type: functional, organism-based; conditions: time 6.5 hrs
RAW264.7 [2] = assay: Anti-inflammatory activity in mouse RAW264.7 cells assessed as inhibition of LPS-induced IL-6 mRNA level preincubated for 2 hrs followed by LPS addition measured after 6 hrs by RT-qPCR analysis; assay type: functional, cell-based; conditions: dose 1-4 µM, time 8.0 hrs
Mus musculus [3] = assay: Anti-inflammatory activity in C57BL/6 mouse model of DSS-induced ulcerative colitis assessed as decrease in macrophage population in red pulp of spleen administered orally for 8 days; assay type: functional, organism-based; conditions: dose 20-40 mg/kg, route po, time 8.0 day
THP-1 [4] = assay: cells; conditions: Homo sapiens
Description: Anti-inflammatory activity in human THP-1 cells assessed as inhibition of LPS-induced IL-6 level preincubated for 30 mins followed by LPS addition measured after 24 hrs by ELISA

[5] = Acute toxicity in C57BL/6 mouse assessed as change in daily activities at 100 to 200 mg/kg, po measured for 10 days; assay type: organism-based; conditions: in vivo, 240 h, dose 100-200 mg/kg, time 10 day
RAW264.7 [6] = assay: Inhibition of MAPK signalling pathway in mouse RAW264.7 cells assessed as reduction in p38 phosphorylation at 2.5 uM preincubated for 2 hrs followed by LPS addition measured after 30 mins by Western blot analysis; assay type: cell-based; conditions: time 2.5 hrs
[7] = Acute toxicity in C57BL/6 mouse assessed as change in body weight change at 100 to 200 mg/kg, po measured for 10 days; assay type: organism-based; conditions: in vivo, 240 h, dose 100-200 mg/kg, time 10 day
[8] = Cmax in Sprague-Dawley rat at 10 mg/kg, po measured for 24 hrs; assay type: ADME, organism-based; conditions: in vivo
[9] = AUC (0 to t) in Sprague-Dawley rat at 1 mg/kg, iv measured for 24 hrs; assay type: ADME, organism-based; conditions: in vivo
[10] = molecular target: T1, Interleukin-1 receptor-associated kinase 4 (Homo sapiens) (UniProt Q9NWZ3); assay: Inhibition of IRAK4 (unknown origin) at 10 uM relative to control
T1 sequence (whole entry): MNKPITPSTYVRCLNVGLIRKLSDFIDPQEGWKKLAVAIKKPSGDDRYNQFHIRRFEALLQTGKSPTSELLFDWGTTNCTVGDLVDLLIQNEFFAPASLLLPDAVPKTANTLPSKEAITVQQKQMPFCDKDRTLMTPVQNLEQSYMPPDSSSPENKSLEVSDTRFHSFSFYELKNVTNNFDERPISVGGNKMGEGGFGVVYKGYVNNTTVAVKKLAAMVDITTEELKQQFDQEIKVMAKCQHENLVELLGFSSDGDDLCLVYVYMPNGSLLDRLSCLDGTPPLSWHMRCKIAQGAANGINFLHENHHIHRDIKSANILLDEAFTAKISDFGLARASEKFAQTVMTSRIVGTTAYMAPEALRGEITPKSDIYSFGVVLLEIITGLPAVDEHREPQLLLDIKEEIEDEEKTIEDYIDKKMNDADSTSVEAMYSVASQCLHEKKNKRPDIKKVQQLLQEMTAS

J774.A1 [11] = assay: cells; conditions: Mus musculus
Description: Anti-inflammatory activity in mouse J774.A1 cells assessed as inhibition of LPS-induced IL-6 level preincubated for 30 mins followed by LPS addition measured after 24 hrs by ELISA

[12] = Acute toxicity in C57BL/6 mouse assessed as change in pathological change in heart at 100 to 200 mg/kg, po measured for 10 days by H and E staining based analysis; assay type: organism-based; conditions: in vivo, 240 h, dose 100-200 mg/kg, time 10 day
[13] = Tmax in Sprague-Dawley rat at 10 mg/kg, po measured for 24 hrs; assay type: ADME, organism-based; conditions: in vivo
Mus musculus [14] = assay: Anti-inflammatory activity in C57BL/6 mouse model of DSS-induced ulcerative colitis assessed as decrease in serum IL-6 level at 20 to 40 mg/kg, po administered for 8 days by ELISA; assay type: functional, organism-based; conditions: dose 20-40 mg/kg, time 8.0 day
Mus musculus [15] = assay: Anti-inflammatory activity in C57BL/6 mouse model of LPS-induced ALI assessed as decrease in spleen weight at 20 mg/kg, po measured after 6 hrs with administered on every 12 hrs followed by LPS treatment after 30 mins post-compound treatment; assay type: functional, organism-based; conditions: time 6.5 hrs
RAW264.7 [16] = assay: cells; conditions: Mus musculus
Description: Anti-inflammatory activity in mouse RAW264.7 cells assessed as inhibition of LPS-induced TNF-alpha level preincubated for 30 mins followed by LPS addition measured after 24 hrs by ELISA

Mus musculus [17] = assay: Anti-inflammatory activity in C57BL/6 mouse model of LPS-induced ALI assessed as decrease in total cell count in BALF at 20 mg/kg, po measured after 6 hrs with administered on every 12 hrs followed by LPS treatment after 30 mins post-compound treatment; assay type: functional, organism-based; conditions: time 6.5 hrs
J774.A1 [18] = assay: cells; conditions: Mus musculus; remark: listed apart in the source
Description: Anti-inflammatory activity in mouse J774.A1 cells assessed as inhibition of LPS-induced TNF-alpha level preincubated for 30 mins followed by LPS addition measured after 24 hrs by ELISA

Mus musculus [19] = assay: (§1) Anti-inflammatory activity in C57BL/6 mouse model of LPS-induced ALI assessed as decrease in inflammatory cell infiltration in lung tissue at 20 mg/kg, po measured after 6 hrs with administered on every 12 hrs followed by LPS treatment after 30 mins post-compound treatment by H and E/IHC staining based analysis; assay type: functional, organism-based; conditions: time 6.5 hrs
[20] = Acute toxicity in C57BL/6 mouse assessed as change in physiological state at 100 to 200 mg/kg, po measured for 10 days; assay type: organism-based; conditions: in vivo, 240 h, dose 100-200 mg/kg, time 10 day
RAW264.7 [21] = assay: Inhibition of MAPK signalling pathway in mouse RAW264.7 cells assessed as reduction in JNK phosphorylation at 2.5 uM preincubated for 2 hrs followed by LPS addition measured after 30 mins by Western blot analysis; assay type: cell-based; conditions: time 2.5 hrs
Mus musculus [22] = assay: Anti-inflammatory activity in C57BL/6 mouse model of DSS-induced ulcerative colitis assessed as decrease in spleen weight at 20 to 40 mg/kg, po administered for 8 days; assay type: functional, organism-based; conditions: dose 20-40 mg/kg, time 8.0 day
Mus musculus [23] = assay: Anti-inflammatory activity in C57BL/6 mouse model of DSS-induced ulcerative colitis assessed as colon length at 20 mg/kg, po administered for 8 days (reference value: 5.1 cm); assay type: functional, organism-based; conditions: time 8.0 day
[24] = Tmax in Sprague-Dawley rat at 1 mg/kg, iv measured for 24 hrs; assay type: ADME, organism-based; conditions: in vivo
RAW264.7 [25] = assay: Anti-inflammatory activity in mouse RAW264.7 cells assessed as inhibition of LPS-induced IL-6 level at 10 uM preincubated for 30 mins followed by LPS addition measured after 24 hrs by ELISA relative to control; assay type: functional; conditions: time 24.5 hrs
Mus musculus [26] = assay: as §1, with “thickening of interstitial edema” for “inflammatory cell infiltration”; assay type: functional, organism-based; conditions: time 6.5 hrs
THP-1 [27] = assay: cells; conditions: Homo sapiens; remark: listed apart in the source
Description: Anti-inflammatory activity in human THP-1 cells assessed as inhibition of LPS-induced TNF-alpha level preincubated for 30 mins followed by LPS addition measured after 24 hrs by ELISA

[28] = molecular target: Mitogen-activated protein kinase 9 (Homo sapiens) (UniProt P45984); assay: Inhibition of JNK2 (unknown origin) at 10 uM relative to control
Chain of Mitogen-activated protein kinase 9 (Homo sapiens) (P45984 whole entry, looked up): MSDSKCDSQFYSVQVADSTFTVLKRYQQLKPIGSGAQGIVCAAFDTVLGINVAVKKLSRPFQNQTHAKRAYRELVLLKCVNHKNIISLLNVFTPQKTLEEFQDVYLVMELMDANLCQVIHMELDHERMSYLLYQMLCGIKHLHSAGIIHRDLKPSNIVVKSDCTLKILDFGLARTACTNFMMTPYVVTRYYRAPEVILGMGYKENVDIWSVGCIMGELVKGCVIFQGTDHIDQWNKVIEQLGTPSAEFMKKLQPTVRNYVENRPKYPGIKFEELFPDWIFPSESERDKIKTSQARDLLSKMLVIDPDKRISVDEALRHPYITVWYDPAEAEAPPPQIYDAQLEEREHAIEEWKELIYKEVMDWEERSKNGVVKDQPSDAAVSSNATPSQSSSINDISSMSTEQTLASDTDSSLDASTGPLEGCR

Mus musculus [29] = assay: Anti-inflammatory activity in C57BL/6 mouse model of DSS-induced ulcerative colitis assessed as decrease in inflammatory cell infiltration in splenic tissue at 20 to 40 mg/kg, po administered for 8 days […]; assay type: functional, organism-based; conditions: dose 20-40 mg/kg, time 8.0 day
RAW264.7 [30] = assay: cells; conditions: Mus musculus; remark: listed apart in the source
Description: Anti-inflammatory activity in mouse RAW264.7 cells assessed as inhibition of LPS-induced IL-6 level preincubated for 30 mins followed by LPS addition measured after 24 hrs by ELISA

[31] = Half life in Sprague-Dawley rat at 10 mg/kg, po measured for 24 hrs; assay type: ADME, organism-based; conditions: in vivo
RAW264.7 [32] = assay: Anti-inflammatory activity in mouse RAW264.7 cells assessed as inhibition of LPS-induced TNF-alpha mRNA level preincubated for 2 hrs followed by LPS addition measured after 6 hrs by RT-qPCR analysis; assay type: functional, cell-based; conditions: dose 1-4 µM, time 8.0 hrs
[33] = AUC (0 to t) in Sprague-Dawley rat at 10 mg/kg, po measured for 24 hrs; assay type: ADME, organism-based; conditions: in vivo

COc1cc2c(O[C@H]3CC[C@@H](N)CC3)ncnc2cc1OCc1cccc(Br)c1
inhibition (Mus musculus [1]): Active | inhibition (RAW264.7 [2]): Dose-dependent-effect | Activity (Mus musculus [3]): Dose-dependent-effect | pIC50 (THP-1 [4]): 6.02 | Activity [5]: Non-toxic | inhibition (RAW264.7 [6]): Active | Activity [7]: Non-toxic | Cmax [8]: 856 ng/mL | AUC(0-t) at 24 h [9]: 7730 ng·h/mL | inhibition [10]: 100% | pIC50 (J774.A1 [11]): 5.82 | Activity [12]: Non-toxic | Tmax [13]: 2 h | Activity (Mus musculus [14]): Active; Activity Was Comparable To 5-Asa | Activity (Mus musculus [15]): Active | pIC50 (RAW264.7 [16]): 5.82 | Activity (Mus musculus [17]): Active | pIC50 (J774.A1 [18]): 5.88 | Activity (Mus musculus [19]): Active | Activity [20]: Non-toxic | inhibition (RAW264.7 [21]): Active | Activity (Mus musculus [22]): Active; Activity Was Comparable To 5-Asa | Activity (Mus musculus [23]): Active | Tmax [24]: 4.8 min | inhibition at 10 µM (RAW264.7 [25]): 73.6% | Activity (Mus musculus [26]): Active | pIC50 (THP-1 [27]): 5.30 | inhibition [28]: 2.49% | Activity (Mus musculus [29]): Active | pIC50 (RAW264.7 [30]): 6.32 | half-life [31]: 3 h | inhibition (RAW264.7 [32]): Dose-dependent-effect | AUC(0-t) at 24 h [33]: 4270 ng·h/mL
